# Read-outs that look alike come from different tables or passages of the source.
# Assays:
# [1] = Toxicity to peritoneal macrophages (Trypan Blue count); assay type: cell-based, BALB/C mouse; details: BALB/C, mouse
# [2] = system: M. tuberculosis H37Rv; assay: Conventional aerobic (MABA) culture assay, luminescence MIC; assay type: cell-based, Mycobacterium tuberculosis; details: for MIC: Mycobacterium tuberculosis, 168 h, aerobic, 7 days, H37Rv; for Selectivity Index H37Rv: VERO vs MABA MIC
# [3] = system: axenic amastigotes of L. amazonensis (strain MHOM/BR/76/LTB-012); details: Table 8b
# [4] = system: 3T3 cells; assay: Cell growth inhibition bioassay (sulforhodamine B); assay type: cell-based, mouse; details: Mus musculus, NIH3T3; 48 h, SRB; read-out: GI50 in indicated cell line: 3T3
# Summary of the method: (§1)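 Cells were exposed to compound alongside matched solvent controls, then stained with sulforhodamine B. Percent growth inhibition was calculated from dye absorbance against the control.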
# [5] = system: axenic amastigotes of L. amazonensis (strain MHOM/BR/76/LTB-012); assay: microbe, parasite or virus in culture; details: Leishmania amazonensis
# [6] = Cytotoxicity VERO cell (Table 6); details: African green monkey, VERO cells
# [7] = system: VERO cells; assay: Cell growth inhibition bioassay (sulforhodamine B); assay type: cell-based, African Green Monkey; details: Chlorocebus sabaeus, Vero; 48 h, SRB; read-out: GI50 in indicated cell line: VERO
# Summary of the method: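 Cytotoxicity is read by sulforhodamine B colorimetry following the Skehan protocol; values are growth inhibition relative to solvent-only wells.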
# [8] = system: MCF-7 cells; assay: Cell growth inhibition bioassay (sulforhodamine B); assay type: cell-based, human; details: Homo sapiens, MCF7; 48 h, SRB; read-out: GI50 in indicated cell line: MCF-7
# Summary of the method: (§2)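 Human cancer cells (MCF-7 breast, DU145 and PC3 prostate, H460 large cell lung) were treated with compounds. Growth relative to solvent control was quantified by SRB protein stain.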
# [9] = system: H460 cells; assay: Cell growth inhibition bioassay (sulforhodamine B); assay type: cell-based, human; details: Homo sapiens, NCI-H460; 48 h, SRB; read-out: GI50 in indicated cell line: H460
# Summary of the method: as §2
# [10] = system: HT-29 cells; assay: Cell growth inhibition bioassay (sulforhodamine B); assay type: cell-based, human; details: Homo sapiens, HT-29; 48 h, SRB; read-out: GI50 in indicated cell line: HT-29
# Summary of the method: as §1
# [11] = system: DU145 cells; assay: Cell growth inhibition bioassay (sulforhodamine B); assay type: cell-based, human; details: Homo sapiens, DU-145; 48 h, SRB; read-out: GI50 in indicated cell line: DU145
# Summary of the method: as §2
# [12] = system: K562 cells; assay: Cell growth inhibition bioassay (sulforhodamine B); assay type: cell-based, human; details: Homo sapiens, K562; 48 h, SRB; read-out: GI50 in indicated cell line: K562
# Summary of the method: as §1
# [13] = system: M-14 cells; assay: Cell growth inhibition bioassay (sulforhodamine B); assay type: cell-based, human; details: Homo sapiens, M14; 48 h, SRB; read-out: GI50 in indicated cell line: M-14
# Summary of the method: as §1
# [14] = Cytotoxicity on VERO cells (MTT), anti-T. cruzi study; details: African green monkey, VERO cells, Cytotoxicity VERO Lab B, Lab B
# [15] = system: non-replicating persistence Mycobacterium tuberculosis (NRP-TB); assay: Low oxygen recovery assay (LORA); assay type: cell-based; details: value in brackets; for MIC: Mycobacterium tuberculosis, anaerobic 10 days, 28 hour recovery; for Selectivity Index LORA: VERO vs LORA MIC
# [16] = system: Trypanosoma cruzi (Tulahuen C4); assay: In vitro anti-T. cruzi activity (β-galactosidase CPRG colorimetric assay in VERO monolayer); assay type: cell-based; details: for Selectivity Index Lab B: IC50, VERO/IC50, T. cruzi
# [17] = system: M. tuberculosis MDR; assay: Anti-tuberculosis bioassay (tetrazolium microplate MIC); assay type: cell-based; details: Mycobacterium tuberculosis, read-out: Mycobacterium MIC MDR
# [18] = system: M. tuberculosis H37Rv; assay: as above; assay type: cell-based; details: Mycobacterium tuberculosis, read-out: Mycobacterium MIC H37Rv, Table 5
# [19] = Trypanosoma cruzi, TULAHUEN, Vero, Lab B, read-out: T. cruzi IC50 Lab B
structure (smiles),measurement,setting,value
C(=N/Nc1ncnc2sc3c(c12)CCCC3)/c1ccco1 [II-18],IC50 at 48 h,[1]; Cytotoxicity Macrophages IC50,0.7 µM
same,MIC,[2],11.9 µg/mL
same,Selectivity Index H37Rv,[2],1.0
same,Selectivity Index,[3],0.6
same,GI50,[4],2.3 µg/mL
same,IC50,[5]; read-out: L. amazonensis IC50,1.2 µM
same,IC50,[6],12.3 µg/mL
same,GI50,[7],2.6 µg/mL
same,GI50,[8],0.3 µg/mL
same,GI50,[9],2.1 µg/mL
same,GI50,[10],2.5 µg/mL
same,GI50,[11],4.7 µg/mL
same,GI50,[12],1.2 µg/mL
same,GI50,[13],3.3 µg/mL
same,IC50,[14],3 µg/mL
same,MIC,[15],2.9 µg/mL
same,Selectivity Index LORA,[15],4.3
same,Selectivity Index Lab B,[16]; Lab B,0.6
same,IC50,"[16]; Trypanosoma cruzi, TULAHUEN, Vero, Lab A, read-out: T. cruzi IC50 Lab A",1.2 µg/mL
same,IC50,[16]; [19],4.8 µg/mL
O=[N+]([O-])c1ccc(/C=N\Nc2ncnc3sc4c(c23)CCCC4)cc1 [II-22],IC50 at 48 h,[1]; Cytotoxicity Macrophages IC50,70.4 µM
same,IC50 at 48 h,[1]; IC50 Cytotoxicity Against Macrophages,> 10 µM
same,MIC,[2],> 100 µg/mL
same,Selectivity Index,[3],5.2
same,GI50,[4],> 62.5 µg/mL
same,IC50,[5]; read-out: IC50 Cytotoxicity Against Amastigotes,33.8 µM
same,IC50,[5]; read-out: L. amazonensis IC50,13.6 µM
same,GI50,[7],> 62.5 µg/mL
same,GI50,[8],> 62.5 µg/mL
same,GI50,[9],> 62.5 µg/mL
same,GI50,[10],> 62.5 µg/mL
same,GI50,[11],> 62.5 µg/mL
same,GI50,[12],> 62.5 µg/mL
same,GI50,[13],> 62.5 µg/mL
same,MIC,[17],> 25 µg/mL
same,MIC,[18],> 25 µg/mL
same,inhibition at 10 µg/mL,"[16]; Trypanosoma cruzi, TULAHUEN, Vero, 120 h, 10 μg/mL of each compound, 120 hours, read-out: T. cruzi Inhib. (%)",11.6%
FC(F)(F)c1ccc(/C=N\Nc2ncnc3sc4c(c23)CCCC4)cc1 [II-24],IC50 at 48 h,[1]; Cytotoxicity Macrophages IC50,3.1 µM
same,MIC,[2],6.1 µg/mL
same,Selectivity Index H37Rv,[2],5.5 (5.5)
same,Selectivity Index,[3],4.1
same,GI50,[4],4 µg/mL
same,IC50,[5]; read-out: L. amazonensis IC50,0.7 µM
same,IC50,[6],33.5 µg/mL
same,GI50,[7],5.4 µg/mL
same,GI50,[8],2 µg/mL
same,GI50,[9],5.8 µg/mL
same,GI50,[10],2.6 µg/mL
same,GI50,[11],5.6 µg/mL
same,GI50,[12],2.5 µg/mL
same,GI50,[13],6.4 µg/mL
same,IC50,[14],3 µg/mL
same,MIC,[15],6 µg/mL
same,Selectivity Index LORA,[15],5.5 (5.5)
same,Selectivity Index Lab B,[16]; Lab B,0.8
same,IC50,[16]; [19],4 µg/mL

# — patent US9061984B2 (University of Louisville Research Foundation, Inc., priority 2008, dated 2015)
